Laboratory results published in paper PMC7806715, “Discovery of small molecules targeting the tandem tudor domain of the epigenetic factor UHRF1 using fragment-based ligand discovery” (Scientific Reports, 2021).

Columns and labels:
UHRF1-TTD = target: T1, UHRF1-TTD (Homo sapiens, UniProt Q96T88); assay: Thermal shift assay (TSA) of TTD; type: binding; settings: for TSA (ΔTm) at 500 μM / ΔTm at 500 µM: compound at 500 μM, untagged TTD, 150 mM NaCl, mean ± S.D., n=3; for ΔTm at 200 µM: fragment screen, His6-TTD, final compound concentration 200 µM, 300 mM NaCl, read-out: ThermoFluor (ΔTm), fragment screen
T1 construct: Using the isolated His6-TTD (aa 123–283) we performed a thermal shift assay; His6 (N, cleaved yes); made in house; host or cells: Rosetta (DE3) E. coli, pMCSG7
T1 sequence (Q96T88 123-283): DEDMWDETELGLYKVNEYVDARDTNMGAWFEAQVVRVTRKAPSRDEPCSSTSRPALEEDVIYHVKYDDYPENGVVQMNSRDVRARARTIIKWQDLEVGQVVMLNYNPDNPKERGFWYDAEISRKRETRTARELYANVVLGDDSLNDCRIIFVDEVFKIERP
Procedure: We used three different assays in parallel to screen a ~ 2300-fragment library to identify hits that bind to TTD or inhibit its activities. The first screening method was a direct binding assay, which generally serves as the basis for most fragment screening. Using the isolated His6-TTD (aa 123–283) we performed a thermal shift assay (TSA) to determine the change in melting temperature upon fragment binding. The change in protein melting temperature (ΔTm) caused by each fragment was calculated by comparison to the DMSO controls on the same plate.
The fragment screen was carried out on LightCycler 480 Multiwell Plates 384 (Roche). The TSA mix contains 0.15 mg/ml of His6-TTD, 10 × of SYPRO Orange dye (ThermoFisher) in the TSA buffer (50 mM sodium phosphate, pH = 7, 300 mM NaCl). During the screen, 5 µl of TSA mix was dispensed into each well, and 100 nl of chemical fragments stock (10 mM in DMSO) was added to each well by pintool using Tecan Freedom Evo liquid handler to make the final compound concentration 200 µM. After 1 h of incubation at room temperature, the increase of fluorescence at 580 nm (excitation 465 nm) during the 20–90 degree melting (0.04 °C/s) was measured by LightCycler 480 Instrument II (Roche). For the fragment screen, on seven of the library plates there were 32-wells of DMSO control, while there were 8-wells of DMSO control in the last plate. […] Using un-tagged TTD for TSA provide closer resemblance to the native state of TTD. The lower salt concentration (150 mM NaCl) also allowed better comparison across three different assays during the dose-dependent SAR studies as both AlphaScreen and TR-FRET assay also use buffers containing 150 mM NaCl.

[1] = target: T2, His6-TTD (UHRF1 tandem Tudor domain) vs. H3K9me3 peptide (Homo sapiens, UniProt Q96T88); assay: TR-FRET assay: His6-TTD interaction with H3K9me3 peptide; type: biochemical; settings: EC50 ± S.E.M., n=3; highest concentration tested 1 mM
T2 construct: Using the isolated His6-TTD (aa 123–283) we performed a thermal shift assay; made in house; host or cells: Rosetta (DE3) E. coli, pMCSG7
T2 sequence (Q96T88 123-283): T1 sequence (Q96T88 123-283)
Procedure: Finally, the fragment library was screened using a TR-FRET assay to find inhibitors that block the interaction of His6-TTD with H3K9me3 peptide. In this assay, an anti-His6-antibody labeled with Tb cryptate binds to His6-TTD while a streptavidin-d2 acceptor binds to a biotinylated histone H3K9me3 peptide. The binding between His6-TTD and H3K9me3 peptide was measured by the ratio of 665 nm fluorescence (from the d2 acceptor) to 620 nm fluorescence (from the Tb cryptate donor) (Fig. 1D).
The fragment screen was carried out on low volume 384-well white plates (Corning 4512) and the assay was performed at room temperature. […] After 1 h of incubation, the fluorescent signals at 665 nm and 620 nm of each plate were measured by the Tecan Infinite M1000 plate reader (excitation 340 nm, 60 µs lag time, and 500 µs integration time) and the TR-FRET signal was calculated by the ratio of 665 nm/620 nm fluorescent signal. For the fragment screen, on seven of the library plates there were 32-wells of DMSO control, while there were 8-wells of DMSO control in the last plate. […] The only difference was that the final concentration of His6-TTD-PHD was 200 nM, biotin-H3K9me3 peptide was 200 nM for the His6-TTD-PHD TR-FRET assay, while the final concentration of His6-UHRF1-FL was 200 nM and biotin-H3K9me3 peptide was 100 nM for the His6-UHRF1-FL TR-FRET assay. The buffer pH was 7.5 for the His6-TTD-PHD and His6-UHRF1-FL assays.

N-UHRF1 vs. C-UHRF1 = target: T3, N-UHRF1 vs. C-UHRF1 (Homo sapiens, UniProt Q96T88); assay: AlphaScreen assay: N-UHRF1 interaction with C-UHRF1 (TTD:PBR); type: biochemical; settings: for EC50 / AlphaScreen (N-UHRF1 vs. C-UHRF1) EC50: EC50 ± S.E.M., n=3, highest concentration tested 1 mM; for inhibition of N-UHRF1:C-UHRF1 interaction by peptide (in words): peptide (1-20) at 50 µM (Fig. S1)
T3 construct: biotinylated-AviTag-N-UHRF1 (containing UBL and TTD, aa 1–285); made in house; host or cells: Rosetta (DE3) E. coli; pMCSG51 (N-UHRF1), pMCSG7 (FLAG-C-UHRF1)
T3 sequence (Q96T88 1-285): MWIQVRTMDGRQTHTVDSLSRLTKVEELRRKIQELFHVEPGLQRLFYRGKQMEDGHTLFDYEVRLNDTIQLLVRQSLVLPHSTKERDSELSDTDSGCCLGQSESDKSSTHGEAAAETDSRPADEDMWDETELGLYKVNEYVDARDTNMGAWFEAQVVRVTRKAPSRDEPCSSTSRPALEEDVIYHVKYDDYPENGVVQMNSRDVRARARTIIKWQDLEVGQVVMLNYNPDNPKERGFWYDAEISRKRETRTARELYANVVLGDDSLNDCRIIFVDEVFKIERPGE
Text: We next turned our attention to screens that reported on functional effects of fragment binding to UHRF1-TTD. UHRF1 can assume two functionally distinct conformations that are favored by different intra-molecular interactions[15],[32]–[35]. UHRF1 assumes a ‘closed’ conformation with diminished E3 ligase activity when the TTD domain interacts with the internal PBR[32]–[35]. To identify compounds that block this internal TTD:PBR interaction, we developed an assay using AlphaScreen (Amplified Luminescent Proximity Homogeneous Assay, Perkin Elmer) technology that detects the interaction between biotinylated-AviTag-N-UHRF1 (containing UBL and TTD, aa 1–285) and FLAG-C-UHRF1 (containing SRA, RING E3 domains and PBR, aa 414–793) (Fig. 1A,C). […] The signal change in each well was calculated relative to DMSO controls on each plate.
The fragment screen was carried out on low volume 384-well white plates (Corning 4512) and the assay was performed at room temperature. First, 5 µl of AlphaScreen buffer (50 mM HEPES, pH = 6.5, 150 mM NaCl, 0.1% Triton X-100, 1 mM DTT) was dispensed by multidrop combi microplate dispenser (Thermo Scientific) and 300 nl of chemical fragment stock (10 mM in DMSO) was added to each well by pintool using Tecan Freedom Evo liquid handler. Next, 3 µl of AlphaScreen reagent mix containing 768 nM of Biotinylated-His-Avitag-N-UHRF1, 768 nM of FLAG-C-UHRF1, 40 µg/ml streptavidin donor beads, and 40 µg/ml Anti-FLAG conjugated acceptor beads (PerkinElmer) was added to each well by multidrop. The final concentration of FLAG-C-UHRF1 was 300 nM, Biotinylated-His-Avitag-N-UHRF1 was 300 nM, Donor/acceptor beads each was 15 µg/ml. In this assay, the biotinylated-AviTag-N-UHRF1 binds to streptavidin-coated donor beads while the FLAG-C-UHRF1 interacts with the anti-FLAG antibody-coated acceptor beads. The final compound concentration was 360 µM. After 1 h of incubation, the AlphaScreen signal of each plate was measured with a Tecan Infinite M1000 plate reader, which uses a high-power laser (680 nm, 750 mW) as the excitation light source for the donor beads and the AlphaScreen filter was used to detect the emission between 520 and 620 nm from the acceptor beads. For the dose-dependent assays for SAR, the final concentrations of N-UHRF1, C-UHRF1, donor, and acceptor beads were the same as fragment screen. The only differences were that the phosphate buffer was used (50 mM sodium phosphate, pH = 7, 150 mM NaCl, 1 mM DTT, and 0.1% Triton-X-100) and the final volume was 10 µL. For the fragment screen, on seven of the library plates there were 32-wells of DMSO control, while there were 8-wells of DMSO control in the last plate.

UHRF1-SRA domain = target: T4, UHRF1-SRA domain (Homo sapiens, UniProt Q96T88); assay: TSA against UHRF1-SRA domain; type: binding; settings: fragment screen
T4 construct: unrelated protein targets (USP7-UBL1/2, UHRF1-SRA domain, and DNMT1-RFTS domain)
T4 sequence (Q96T88 419-582 limits assumed): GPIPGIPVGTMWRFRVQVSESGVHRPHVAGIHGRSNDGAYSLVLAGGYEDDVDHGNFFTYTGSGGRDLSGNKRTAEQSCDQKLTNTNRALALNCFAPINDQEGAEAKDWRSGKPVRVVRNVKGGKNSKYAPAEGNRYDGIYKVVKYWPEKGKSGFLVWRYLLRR
Text: (§1) F1957-0227 was identified as a hit in two other AlphaScreen assays (N-UHRF1 vs. USP7-UBL1/2 and UHRF1-SRA domain vs. DNMT1-RFTS domain) and in three TSAs against unrelated protein targets (USP7-UBL1/2, UHRF1-SRA domain, and DNMT1-RFTS domain); we concluded that F1957-0227 behaves as a pan-assay interference compound (PAINS)[53] and is thus not suitable for follow-up.

DNMT1-RFTS domain = target: T5, DNMT1-RFTS domain (Homo sapiens, UniProt P26358); assay: TSA against DNMT1-RFTS domain; type: binding; settings: fragment screen
T5 construct: unrelated protein targets (USP7-UBL1/2, UHRF1-SRA domain, and DNMT1-RFTS domain)
T5 sequence (P26358 400-533 limits assumed): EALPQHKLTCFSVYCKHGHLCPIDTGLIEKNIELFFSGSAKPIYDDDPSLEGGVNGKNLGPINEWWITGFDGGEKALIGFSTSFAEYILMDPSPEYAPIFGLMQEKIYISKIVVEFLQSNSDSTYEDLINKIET
Text: as §1

N-UHRF1 vs. USP7-UBL1/2 = assay: AlphaScreen assay N-UHRF1 vs. USP7-UBL1/2 (other screen); type: biochemical; settings: fragment screen
Text: as §1

[2] = target: T6, UHRF1-SRA domain vs. DNMT1-RFTS domain (Homo sapiens, UniProt P26358+Q96T88); assay: AlphaScreen assay UHRF1-SRA domain vs. DNMT1-RFTS domain (other screen); type: biochemical; settings: fragment screen
T6 construct: UHRF1-SRA domain vs. DNMT1-RFTS domain
T6 sequence (P26358 400-533 limits assumed, one chain of several): as the sequence (P26358 400-533 limits assumed) above
Text: as §1

USP7-UBL1/2 = USP7-UBL1/2 (Homo sapiens, UniProt Q93009); assay: TSA against USP7-UBL1/2; type: binding; settings: fragment screen
USP7-UBL1/2, sequence (Q93009 560-776 limits assumed): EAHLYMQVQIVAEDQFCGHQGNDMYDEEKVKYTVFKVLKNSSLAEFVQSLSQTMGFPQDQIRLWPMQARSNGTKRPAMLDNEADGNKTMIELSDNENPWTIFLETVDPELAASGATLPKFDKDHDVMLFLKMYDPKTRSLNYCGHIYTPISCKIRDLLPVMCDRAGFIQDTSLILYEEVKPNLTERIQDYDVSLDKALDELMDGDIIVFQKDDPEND
Text: as §1

Molecule | TSA (ΔTm) at 500 μM (UHRF1-TTD) [°C] | EC50 [1] [µM] | EC50 (N-UHRF1 vs. C-UHRF1) [µM] | also measured
Cc1cc(C)nc(N)c1 [Compound 12] | 1.59 ± 0.06 | 51.9 ± 8.1 | 21.3 ± 3.5 | 
c1cnc2c(c1)CCCN2 [Compound 2] | 0.75 ± 0.02 | 109 ± 18.2 | 164 ± 33 | 
c1cnc2c(c1)CCCC2 [Compound 6, 5,6,7,8-tetra-hydro-quinoline] |  | > 500 |  | ΔTm at 500 µM (UHRF1-TTD): 0.21 ± 0.06 °C; AlphaScreen (N-UHRF1 vs. C-UHRF1) EC50 (N-UHRF1 vs. C-UHRF1): 281.7 ± 227.7 µM
H3K4me3 peptide: histone H3 (1-20) peptide trimethylated at Lys4, negative control [reference compound] |  |  |  | inhibition of N-UHRF1:C-UHRF1 interaction by peptide (in words) (N-UHRF1 vs. C-UHRF1): not
Cc1ccnc(N)c1 [Compound 8] | 0.66 ± 0.09 | 238 ± 89.1 | 52.6 ± 6.9 | 
Cc1ccnc(Cl)c1 [Compound 9] |  |  |  | TR-FRET (TTD vs. H3K9me3) EC50 [1]: No inhibition; AlphaScreen (N-UHRF1 vs. C-UHRF1) EC50 (N-UHRF1 vs. C-UHRF1): No inhibition
Cc1cc(C)nc(C)c1 [Compound 15] | 1.11 ± 0.06 | 47.2 ± 4.9 | > 500 | 
Cc1c(Br)cnc2c1CCCN2 [Compound 3] | 0.1 ± 0.06 | 58.5 ± 8.4 | 75.7 ± 14.4 | 
Nc1ncc(Br)c2cc[nH]c12 [Compound F1957-0227] |  |  |  | hit call in TSA against UHRF1-SRA domain (UHRF1-SRA domain): hit; ΔTm at 200 µM (UHRF1-TTD): 2.58 °C; hit call in TSA against DNMT1-RFTS domain (DNMT1-RFTS domain): hit; hit call in AlphaScreen N-UHRF1 vs. USP7-UBL1/2 (N-UHRF1 vs. USP7-UBL1/2): hit; hit call in AlphaScreen UHRF1-SRA domain vs. DNMT1-RFTS domain [2]: hit; hit call in TSA against USP7-UBL1/2 (USP7-UBL1/2): hit
Cc1cc(C)c2c(n1)NCCC2 [Compound F1957-0088] |  |  |  | ΔTm at 500 µM (UHRF1-TTD): 1.52 ± 0.09 °C; ΔTm at 200 µM (UHRF1-TTD): 1.74 °C
H3K9me3 peptide: histone H3 (1–20) peptide trimethylated at Lys9, TTD ligand [reference compound] |  |  |  | inhibition of N-UHRF1:C-UHRF1 interaction by peptide (in words) (N-UHRF1 vs. C-UHRF1): could inhibit
c1cnc2c(c1)NCCN2 [Compound 7, 1,2,3,4-tetrahydropyrido[2,3-b]pyrazine] |  | > 500 |  | ΔTm at 500 µM (UHRF1-TTD): 0.19 ± 0.06 °C; AlphaScreen (N-UHRF1 vs. C-UHRF1) EC50 (N-UHRF1 vs. C-UHRF1): 379.8 ± 176.0 µM
